In US20240251785A1, “SMALL MOLECULE ANTAGONISTS AND AGONISTS OF ARTHROPOD KININ RECEPTORS FOR PEST CONTROL” (The Texas A&M University System, priority 2021, published 2024):
pEC50, pIC50: −log10 of the molar value.

Legend:
[1] = tested on: vector-only (V/O) CHO-K1 cells; assay: Dose-response dual-addition calcium fluorescence assay on vector-only cells; assay type: cell-based; details: V/O cells; for pEC50: first addition; for pIC50: second addition Rhimi-K-1 1 μmol L^−1, read-out: V/O antagonist IC50
[2] = tested on: R. microplus kinin receptor; assay: High-throughput dual-addition calcium fluorescence screen on BMLK3 cells; assay type: cell-based, Rhipicephalus microplus; details: for antagonist Io (%): compound 2 μmol L^−1, 5 min, then FFFSWGa 500 nmol L^−1; for agonist NPA (%): compound 2 μmol L^−1, first addition, relative to FFFSWGa 500 nmol L^−1
[3] = target: recombinant tick kinin receptor (BMLK3) (Rhipicephalus microplus, UniProt Q9NHA4); assay: Dose-response dual-addition calcium fluorescence assay on BMLK3 cells; assay type: cell-based; details: for validation mark in dose-response assay: Table 3; for pEC50: first addition, 20 concentrations 28 nM-25 μM, read-out: BMLK3 EC50; for pIC50: second addition Rhimi-K-1 1 μmol L^−1, read-out: BMLK3 IC50
recombinant tick kinin receptor (BMLK3), sequence (Q9NHA4 entry or part of it): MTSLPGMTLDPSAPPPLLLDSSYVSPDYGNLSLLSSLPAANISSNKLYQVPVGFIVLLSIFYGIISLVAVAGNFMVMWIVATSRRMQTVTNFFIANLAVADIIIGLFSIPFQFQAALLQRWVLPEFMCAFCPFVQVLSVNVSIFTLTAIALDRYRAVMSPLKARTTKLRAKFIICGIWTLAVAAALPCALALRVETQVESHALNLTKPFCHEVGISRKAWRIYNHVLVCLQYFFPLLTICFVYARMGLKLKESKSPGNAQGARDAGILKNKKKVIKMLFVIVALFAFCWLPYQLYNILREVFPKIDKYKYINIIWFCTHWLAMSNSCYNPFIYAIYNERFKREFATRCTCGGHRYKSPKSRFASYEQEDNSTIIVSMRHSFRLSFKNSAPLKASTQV

Cc1cccc(NC(=O)c2c(F)c(F)c(F)c(F)c2F)n1 [SACC-0037442]
pEC50 [1]: < 4.60 | pIC50 [1]: 5.14 | antagonist Io (%) [2]: 52% | validation mark in dose-response assay [3]: *** (molecules which are either off-target or of low activity (<25 μM)) | pEC50 [3]: 5.11 | pIC50 [3]: > 7.55

Cc1ccc(-c2ccsc2C(=O)Nc2ccc3c(c2)CCO3)cc1 [SACC-0033336]
pEC50 [1]: 5.36 | pIC50 [1]: < 4.60 | agonist NPA (%) [2]: 51% | validation mark in dose-response assay [3]: *** (molecules which are either off-target or of low activity (<25 μM)) | pEC50 [3]: 5.53 | pIC50 [3]: 5.14

O=C(NC(=S)NNC(=O)c1cc(-c2ccccc2)nc2ccccc12)c1cccs1 [SACC-0117741]
pEC50 [1]: 5.72 | pIC50 [1]: 5.83 | agonist NPA (%) [2]: 127% | validation mark in dose-response assay [3]: *** (molecules which are either off-target or of low activity (<25 μM)) | pEC50 [3]: 5.76 | pIC50 [3]: > 7.55

CC(=O)c1cc(C(=O)N[C@H](C)c2nc(-c3cccnc3)n[nH]2)cs1 [SACC-0007370]
pEC50 [1]: > 7.55 | pIC50 [1]: < 4.60 | antagonist Io (%) [2]: 60% | validation mark in dose-response assay [3]: *** (molecules which are either off-target or of low activity (<25 μM)) | pEC50 [3]: 5.75 | pIC50 [3]: 5.85

O=C(CCc1nc(-c2cccs2)no1)Nc1ccc(-n2cnc3ccccc32)nc1 [SACC-0114394]
pEC50 [1]: 5.38 | pIC50 [1]: 5.36 | agonist NPA (%) [2]: 152% | validation mark in dose-response assay [3]: *** (molecules which are either off-target or of low activity (<25 μM)) | pEC50 [3]: 4.92 | pIC50 [3]: 4.96

COc1ccccc1-n1nnnc1S[C@@H](C)C(=O)c1ccc2c(c1)CCN2C(C)=O [SACC-0095062]
pEC50 [1]: < 4.60 | pIC50 [1]: > 7.55 | agonist NPA (%) [2]: 47% | validation mark in dose-response assay [3]: *** (molecules which are either off-target or of low activity (<25 μM)) | pEC50 [3]: < 4.60 | pIC50 [3]: < 4.60

Cc1oc(S(=O)(=O)N2CCOCC2)cc1C(=O)Nc1ccc(F)cc1 [SACC-0026188]
pEC50 [1]: 6.81 | pIC50 [1]: < 4.60 | antagonist Io (%) [2]: 67% | validation mark in dose-response assay [3]: *** (molecules which are either off-target or of low activity (<25 μM)) | pEC50 [3]: > 7.55 | pIC50 [3]: 6.65

Cc1cc2ncn(CCCCSc3ccccc3)c2cc1C [SACC-0025692]
pEC50 [1]: 5.02 | pIC50 [1]: 6.95 | antagonist Io (%) [2]: 42% | validation mark in dose-response assay [3]: *** (molecules which are either off-target or of low activity (<25 μM)) | pEC50 [3]: < 4.60 | pIC50 [3]: 6.12

NC(N)=N/C(N)=N\c1ccc(Br)cc1 [SACC-0108986]
pEC50 [1]: 6.88 | pIC50 [1]: 5.41 | antagonist Io (%) [2]: 53% | validation mark in dose-response assay [3]: *** (molecules which are either off-target or of low activity (<25 μM)) | pEC50 [3]: 6.16 | pIC50 [3]: 6.44

COc1ccccc1NC(=O)c1cc2ccccc2cc1OCc1nnnn1C1CC1 [SACC-0095102]
pEC50 [1]: > 7.55 | pIC50 [1]: 5.66 | agonist NPA (%) [2]: 145% | validation mark in dose-response assay [3]: *** (molecules which are either off-target or of low activity (<25 μM)) | pEC50 [3]: 6.01 | pIC50 [3]: 5.73

CCN(CC)c1ccc2cc(C(N)=O)c(=NNC(=O)c3cccs3)oc2c1 [SACC-0052578]
pEC50 [1]: < 4.60 | pIC50 [1]: < 4.60 | agonist NPA (%) [2]: 166% | validation mark in dose-response assay [3]: *** (molecules which are either off-target or of low activity (<25 μM)) | pEC50 [3]: < 4.60 | pIC50 [3]: < 4.60

COC(=O)c1cc2c(s1)Oc1cc(C(F)(F)F)ccc1C(=S)N2 [SACC-0081272]
pEC50 [1]: 7.31 | pIC50 [1]: < 4.60 | antagonist Io (%) [2]: 74% | validation mark in dose-response assay [3]: *** (molecules which are either off-target or of low activity (<25 μM)) | pEC50 [3]: 5.83 | pIC50 [3]: > 7.55
